Where a name gives a salt, the structure may show the parent alone.

For 37 compounds, IC50 results are on record in patent publication US9770452B2, “Quinoxaline derivatives as GPR6 modulators” (Takeda Pharmaceutical Company Limited, priority 2012, dated 2017).

The target in this assay is T1, GPR6 receptor (Homo sapiens, UniProt P46095).
T1 construct: expressed in transfected cells
T1 sequence (P46095 whole entry): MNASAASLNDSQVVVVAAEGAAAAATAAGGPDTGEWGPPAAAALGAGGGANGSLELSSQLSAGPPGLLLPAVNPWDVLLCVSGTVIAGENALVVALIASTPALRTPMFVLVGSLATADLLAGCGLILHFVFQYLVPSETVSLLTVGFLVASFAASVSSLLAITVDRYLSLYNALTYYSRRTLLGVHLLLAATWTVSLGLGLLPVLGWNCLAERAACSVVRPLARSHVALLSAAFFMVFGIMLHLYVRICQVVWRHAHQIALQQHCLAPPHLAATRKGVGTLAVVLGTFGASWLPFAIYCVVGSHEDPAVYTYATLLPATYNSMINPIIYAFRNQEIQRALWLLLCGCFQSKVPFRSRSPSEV
Nature of the assay: Inhibition of cAMP Activity of GPR6 In Vitro Assay (CHO-K1 cells, HTRF cAMP). The assay is classed as cell-based. Conditions: compounds of Compound Table 1; inhibition of constitutive cAMP activity of GPR6 expressed in CHO-K1 cells; approximate IC50; read-out: IC50. The procedure: Inhibition of cAMP Activity of GPR6 In Vitro Assay
This cell based assay measures the ability of compounds to inhibit the constitutive cAMP activity of GPR6 receptor expressed in CHO-K1 cells. CHO cells were stably expressed with GPR6 receptor, whose expression is controlled by a tetracycline inducable element. The cells were cultured in medium containing F12K, 10% FBS, 1% Penn/Strep, 200 ug/mL Hygromycin. GPR6 receptor expression was induced for 20 hrs with 1 μg/ml doxycycline (sigma D9891) in growth media. After addition of doxycycline cells were plated at a density of 250-500 cells per well in half-volume black clear bottom plates (Costar) and place in an incubator (37°, 5% C(O)2) for 20 hours prior to cAMP assays.
Culture media was removed from cells and they were washed with 50 μL of Ringer's Buffer (MgCl2 0.047 mg/mL, NaH2PO4 0.18 mg/mL, Na2HPO4 0.1 mg/mL, KCl 0.34 mg/mL, NaHC(O)3 1.26 mg/mL, D-glucose 1.8 mg/mL, NaCl 7 mg/mL; pH=7.4). Compounds suspended in DMSO were diluted in Ringer's Buffer containing 0.5% fatty acid free BSA and incubated on cells for 45 min at […] and 5% C(O)2. After incubation cells were incubated for 10 min at room temp with Eu-cAMP tracer solution from a Perkin Elmer Lance HTRF UltracAMP assay kit (TRF0264). Then ULight™-anti-cAMP solution from the Lance HTRF kit was added and incubated on a shaker at room temp for 1 hour prior to HTRF detection in a BMG PolarStar Omega.
IC50 curves were generated with a four-parameter logistic equation using GraphPad Prism 5.03.
Consider “3-(4-(2-fluoro-4-methoxyphenoxy)piperidin-1-yl)-N-isopropylpyrido[3,4-b]pyrazin-2-amine, 2,2,2-trifluoroacetic acid salt [Cpd 617]”, for which the IC50 (as a rule, the concentration that gives 50% inhibition) came out at 54 nM.

Take `Clc1cccc(CN2CCN(c3nc4cccnc4nc3Nc3ccccc3)CC2)c1` [Cpd 22, 2-(4-(3-chlorobenzyl)piperazin-1-yl)-N-phenylpyrido[2,3-b]pyrazin-3-amine, 2,2,2-trifluoroacetic acid salt]: the IC50 was 7670 nM.

Turning to “2-(cyclopropylamino)-3-(4-((2-fluorophenyl)sulfonyl)piperazin-1-yl)quinoxaline-6-carbonitrile, 2,2,2-trifluoroacetic acid salt [Cpd 241]”, the IC50 amounted to 650 nM.

In the case of “2-(cyclopropylamino)-3-(4-((2,4-difluorophenyl)fluoromethyl)piperidin-1-yl)quinoxaline-6-carbonitrile, 2,2,2-trifluoroacetic acid salt [Cpd 480]”, the IC50 is 72 nM.

Turning to “N-cyclopropyl-3-(4-((4-fluorophenyl)sulfonyl)piperidin-1-yl)-7-methylpyrido[3,4-b]pyrazin-2-amine 2,2,2-trifluoroacetate [Cpd 654]”, the IC50 turned out to be 30 nM.

As to `c1ccc2nc(N3CCN(Cc4ccncc4)CC3)c(NC3CC3)nc2c1` [Cpd 17, N-cyclopropyl-3-(4-(pyridin-4-ylmethyl)piperazin-1-yl)quinoxalin-2-amine, 2,2,2-trifluoroacetic acid salt], the IC50 was 25900 nM.

In the case of “3-(4-((2,4-difluorophenyl)fluoromethyl)piperidin-1-yl)-N-(2-methoxyethyl)pyrido[3,4-b]pyrazin-2-amine, 2,2,2-trifluoroacetic acid salt [Cpd 520]”, the half-maximal inhibitory concentration (IC50) turned out to be 30 nM.

For the compound `Cc1cc(C)c2nc(N3CCN(Cc4cc(Cl)ccc4Cl)CC3)c(NC3CC3)nc2c1` [Cpd 103, N-cyclopropyl-3-(4-(2,5-dichlorobenzyl)piperazin-1-yl)-5,7-dimethylquinoxalin-2-amine], the IC50 was 5310 nM.

Consider “(4-(2-(cyclopropylamino)pyrido[3,4-b]pyrazin-3-yl)piperazin-1-yl)(4-(difluoromethyl)phenyl)methanone, 2,2,2-trifluoroacetic acid salt [Cpd 289]”, for which the IC50 came to 270 nM.

Take `Cc1cccc(CN2CCN(c3nc4ncccc4nc3NC3CC3)CC2)c1` [Cpd 3, N-cyclopropyl-3-(4-(3-methylbenzyl)piperazin-1-yl)pyrido[2,3-b]pyrazin-2-amine]: the IC50 was determined as 24600 nM.

“N-cyclopropyl-3-(4-(2,5-dichlorobenzyl)piperazin-1-yl)pyrido[3,4-b]pyrazin-2-amine, 2,2,2-trifluoroacetic acid salt [Cpd 134]”: the IC50 stood at 1640 nM.

For “3-(4-(2,5-dichlorobenzyl)piperazin-1-yl)-N-(2-ethoxyethyl)quinoxalin-2-amine, 2,2,2-trifluoroacetic acid salt [Cpd 167]”, the IC50 amounted to 3330 nM.

“N-cyclopropyl-3-(4-(4-fluorobenzyl)piperazin-1-yl)pyrido[3,4-b]pyrazin-2-amine, 2,2,2-trifluoroacetic acid salt [Cpd 291]”: the IC50 was 140 nM.

For “N-cyclopropyl-3-(4-(2,3,5-trichlorobenzyl)piperazin-1-yl)quinoxalin-2-amine, 2,2,2-trifluoroacetic acid salt [Cpd 221]”, the IC50 came out at 20400 nM.

Regarding “3-(4-((4-chlorophenyl)sulfonyl)piperazin-1-yl)-2-(cyclopropylamino)quinoxaline-6-carbonitrile, 2,2,2-trifluoroacetic acid salt [Cpd 227]”, the IC50 came out at 3290 nM.

For the compound “3-(4-(2,4-difluorophenoxy)piperidin-1-yl)-N-isopropylpyrido[3,4-b]pyrazin-2-amine, 2,2,2-trifluoroacetic acid salt [Cpd 620]”, the IC50 was 18 nM.

For “3-(4-(2-fluoro-4-methoxybenzyl)piperidin-1-yl)-N-isopropylpyrazino[2,3-d]pyridazin-2-amine, 2,2,2-trifluoroacetic acid salt [Cpd 642]”, the 50% inhibitory concentration (IC50) was 54 nM.

As to “N-cyclopropyl-3-(4-((2,4-difluorophenyl)fluoromethyl)piperidin-1-yl)-7-methylpyrido[3,4-b]pyrazin-2-amine, 2,2,2-trifluoroacetic acid salt [Cpd 488]”, the IC50 stood at 29 nM.

As to “3-(4-(2,5-difluorobenzoyl)piperidin-1-yl)-2-(isopropylamino)pyrido[3,4-b]pyrazine-7-carbonitrile, 2,2,2-trifluoroacetic acid salt [Cpd 631]”, the IC50 is 6 nM.

Take “2-((2,2-difluoroethyl)amino)-3-(4-(2,4-difluorophenoxy)piperidin-1-yl)pyrido[3,4-b]pyrazine-7-carbonitrile, 2,2,2-trifluoroacetic acid salt [Cpd 646]”: the IC50 was found to be 538 nM.

Take “3-(4-(2-fluoro-4-methoxyphenoxy)piperidin-1-yl)-N-isopropylpyrido[3,4-b]pyrazin-2-amine, 2,2,2-trifluoroacetic acid salt [Cpd 616]”: the IC50 was 939 nM.

With “6-bromo-N-cyclopropyl-3-(4-((2,5-difluorophenyl)fluoromethyl)piperidin-1-yl)quinoxalin-2-amine, 2,2,2-trifluoroacetic acid salt [Cpd 500]”, the IC50 was found to be 160 nM.

Turning to “N-cyclopropyl-3-(4-(2-methoxyphenoxy)piperidin-1-yl)pyrido[3,4-b]pyrazin-2-amine, 2,2,2-trifluoroacetic acid salt [Cpd 559]”, the IC50 was determined as 67 nM.

Turning to “(4-chlorophenyl)(1-(2-(cyclopropylamino)pyrido[3,4-b]pyrazin-3-yl)piperidin-4-yl)methanone, 2,2,2-trifluoroacetic acid salt [Cpd 430]”, the IC50 came to 1100 nM.

On to “(2-(cyclopropylamino)-3-(4-(2-fluoro-4-methoxyphenoxy)piperidin-1-yl)pyrido[3,4-b]pyrazin-7-yl)(4-methylpiperazin-1-yl)methanone [Cpd 603]”, for which the IC50 is 1020 nM.

As for “(S)-(2-(cyclopropylamino)-3-(4-((2,4-difluorophenyl)fluoromethyl)piperidin-1-yl)pyrido[3,4-b]pyrazin-7-yl)(morpholino)methanone, 2,2,2-trifluoroacetic acid salt [Cpd 579]”, the IC50 was determined as 10 nM.

For the compound “2-(4-(2,4-difluorobenzyl)piperidin-1-yl)-N-(2,2-difluoroethyl)pyrido[3,4-b]pyrazin-3-amine [Cpd 428]”, the IC50 was found to be 20 nM.

Take “(R)-azetidin-1-yl(2-(cyclopropylamino)-3-(4-((2,4-difluorophenyl)fluoromethyl)piperidin-1-yl)pyrido[3,4-b]pyrazin-7-yl)methanone [Cpd 589]”: the half-maximal inhibitory concentration (IC50) is 69 nM.

On to “3-(4-(2,5-dichlorobenzyl)piperazin-1-yl)-N-(tetrahydro-2H-pyran-4-yl)quinoxalin-2-amine, 2,2,2-trifluoroacetic acid salt [Cpd 171]”, for which the half-inhibitory concentration (IC50) was 1570 nM.

As for “3-(4-(2,4-difluorobenzyl)piperidin-1-yl)-N-(2-methoxyethyl)pyrido[3,4-b]pyrazin-2-amine, 2,2,2-trifluoroacetic acid salt [Cpd 519]”, the IC50 turned out to be 250 nM.

Regarding “(R)-2-((3-(4-(2,5-dichlorobenzyl)piperazin-1-yl)quinoxalin-2-yl)amino)propan-1-ol, 2,2,2-trifluoroacetic acid salt [Cpd 172]”, the IC50 is 2340 nM.

Turning to `Clc1ccc(Cl)c(CN2CCN(c3nc4cc(Br)ccc4nc3NC3CC3)CC2)c1` [Cpd 46, 6-bromo-N-cyclopropyl-3-(4-(2,5-dichlorobenzyl)piperazin-1-yl)quinoxalin-2-amine, 2,2,2-trifluoroacetic acid salt], the half-maximal inhibitory concentration (IC50) worked out at 4820 nM.

For “3-(4-(2,5-dichlorobenzyl)piperazin-1-yl)-N-(1,2,4-triazin-3-yl)quinoxalin-2-amine, 2,2,2-trifluoroacetic acid salt [Cpd 177]”, the half-inhibitory concentration (IC50) was 17800 nM.

For “3-(4-(2,4-difluorobenzyl)piperazin-1-yl)-2-(isopropylamino)-N,N-dimethylpyrido[3,4-b]pyrazine-7-carboxamide, 2,2,2-trifluoroacetic acid salt [Cpd 634]”, the IC50 stood at 6 nM.

“3-(4-((4-(tert-butyl)phenyl)sulfonyl)piperazin-1-yl)-2-(cyclopropylamino)quinoxaline-6-carbonitrile, 2,2,2-trifluoroacetic acid salt [Cpd 280]”: the IC50 is 450 nM.

Turning to “N-cyclopropyl-3-(4-((2,4-difluorophenyl)difluoromethyl)piperidin-1-yl)pyrido[3,4-b]pyrazin-2-amine [Cpd 545]”, the IC50 came to 45 nM.

In the case of “(1-(2-(cyclopropylamino)pyrido[3,4-b]pyrazin-3-yl)piperidin-4-yl)(2-fluoro-5-(methylthio)phenyl)methanone, 2,2,2-trifluoroacetic acid salt [Cpd 593]”, the IC50 was determined as 23 nM.
